# How the values were obtained:
# [1] = system: Mycobacterium tuberculosis; assay: Antitubercular activity against Mycobacterium tuberculosis H37Rv by agar microdilution technique; type: functional
# [2] = system: Mycobacterium tuberculosis; assay: Antitubercular activity against Mycobacterium tuberculosis H37Rv by standard BACTEC radiometric growth assay; type: functional
Compound,MIC [1],MIC [2]
COc1ccc(C(c2ccc(OCC(O)CN3CCN(Cc4ccccc4)CC3)cc2)c2cc3ccccc3c3ccccc23)cc1 (stereo unspecified),25 µg/mL,
CCCCNCC(O)COc1ccc(C(c2ccc(OC)cc2)c2cc3ccccc3c3ccccc23)cc1 (stereo unspecified),6.25 µg/mL,6.25 µg/mL
OC(CNC1CCCCC1)COc1ccc(C(c2ccc(OCC(O)CNC3CCCCC3)cc2)c2cc3ccccc3c3ccccc23)cc1 (stereo unspecified),6.25 µg/mL,12.5 µg/mL
CCN(CC)CC(O)COc1ccc(C(c2ccc(OC)cc2)c2cc3ccccc3c3ccccc23)cc1 (stereo unspecified),6.25 µg/mL,6.25 µg/mL
COc1ccc(C(c2ccc(OCC(O)CNC3CC3)cc2)c2cc3ccccc3c3ccccc23)cc1 (stereo unspecified),25 µg/mL,25 µg/mL
COc1ccc(C(c2ccc(OCC3CO3)cc2)c2cc3ccccc3c3ccccc23)cc1 (stereo unspecified),25 µg/mL,
COc1ccc(C(c2ccc(OCC(O)CN3CCCCC3)cc2)c2cc3ccccc3c3ccccc23)cc1 (stereo unspecified),12.5 µg/mL,12.5 µg/mL
COc1ccc(C(c2ccc(OCC(O)CN3CCCC3)cc2)c2cc3ccccc3c3ccccc23)cc1 (stereo unspecified),12.5 µg/mL,12.5 µg/mL
CN1CCN(CC(O)COc2ccc(C(c3ccc(OCC(O)CN4CCN(C)CC4)cc3)c3cc4ccccc4c4ccccc34)cc2)CC1 (stereo unspecified),12.5 µg/mL,12.5 µg/mL
COc1ccc(C(c2ccc(OCC(O)CN3CCN(C)CC3)cc2)c2cc3ccccc3c3ccccc23)cc1 (stereo unspecified),12.5 µg/mL,12.5 µg/mL
COc1ccc(C(c2ccc(OCC(O)CN3CCOCC3)cc2)c2cc3ccccc3c3ccccc23)cc1 (stereo unspecified),25 µg/mL,
COc1ccc(C(c2ccc(OCC(O)CNC3CCCCC3)cc2)c2cc3ccccc3c3ccccc23)cc1 (stereo unspecified),12.5 µg/mL,6.25 µg/mL
OC(COc1ccc(C(c2ccc(OCC(O)CN3CCCCC3)cc2)c2cc3ccccc3c3ccccc23)cc1)CN1CCCCC1 (stereo unspecified),6.25 µg/mL,12.5 µg/mL
COc1ccc(C(c2ccc(OCC(O)CNC3CCCCCC3)cc2)c2cc3ccccc3c3ccccc23)cc1 (stereo unspecified),3.12 µg/mL,3.12 µg/mL
OC(COc1ccc(C(c2ccc(OCC(O)CN3CCCC3)cc2)c2cc3ccccc3c3ccccc23)cc1)CN1CCCC1 (stereo unspecified),12.5 µg/mL,12.5 µg/mL
NNC(=O)c1ccncc1 [ISONIAZID],0.05 µg/mL,0.025 µg/mL
CO[C@H]1/C=C/O[C@@]2(C)Oc3c(C)c(O)c4c(O)c(c(/C=N/N5CCN(C)CC5)c(O)c4c3C2=O)NC(=O)/C(C)=C\C=C\[C@H](C)[C@H](O)[C@@H](C)[C@@H](O)[C@@H](C)[C@H](OC(C)=O)[C@@H]1C [RIFAMPIN],0.1 µg/mL,0.2 µg/mL

# — ChEMBL document CHEMBL1141943, “Synthesis and antitubercular activity of 2-hydroxy-aminoalkyl derivatives of diaryloxy methano phenanthrenes” (2005)
